The subject of data set [1] is PC-3 xenografts. Description: Biodistribution in tumor bearing mice. The data set is classed as in vivo. Conditions: BALB/c nu/nu mice bearing PC-3 xenografts, 3 h pi. The protocol: Animals: All in vivo experiments were carried out on BALB/c nu/nu or NMRI mice provided by Scanbur A/S (Sollentuna, Sweden). All animal studies were approved by the Ethics Committee for Animal Research in Uppsala (Sweden), following the national legislation on the protection of laboratory animals (project identification code of approval 5/16, 26 February 2016). Prostate cancer xenografts expressing GRPR were established in BALB/c nu/nu mice by subcutaneous injection of PC-3 cell suspension in PBS (7 × 10^6 cells in 100 µL) four weeks before the experiment. Four to seven mice per data point were used in in vivo experiments, two mice per data point were used in metabolic analysis and SPECT/CT imaging experiments.
Biodistribution in tumor bearing mice: The comparison of biodistribution between the two radiolabeled peptides was evaluated in BALB/c nu/nu mice bearing PC-3 xenografts. Each mouse was injected with 40 pmol (30 kBq, mass of injected peptide was adjusted with unlabeled peptide) of either [^99mTc]Tc-maSSS-PEG2-RM26 or [^99mTc]Tc-maSES-PEG2-RM26. The mice were euthanized 3 h pi. Sample collection and activity measurements were done as described above. The biodistribution of [^99mTc]Tc-maSSS-PEG2-RM26 was further studied at 6 h pi following the same protocol. Additionally for [^99mTc]Tc-maSSS-PEG2-RM26, one group of xenograft bearing mice was injected with 40 pmol (30 kBq, mass of injected peptide was adjusted with unlabeled peptide) of labeled peptide with 5 nmol of unlabeled peptide and euthanized 3 h pi.

The nature of data set [2]: Octanol-water distribution coefficient (logD). The data set is classed as physicochemical. Conditions: determined as previously described [35]. The protocol: To test the stability, the radiolabeled peptides were incubated with 300× molar excess of cysteine or with PBS at room temperature for 1 h. The octanol-water distribution coefficient (logD) was determined as previously described.

Where [3] appears, read: 40 pmol (30 kBq), gamma counter, 4-7 mice.

On to `CC(C)C[C@H](NC(=O)C[C@H](O)[C@H](CC(C)C)NC(=O)[C@H](Cc1c[nH]cn1)NC(=O)CNC(=O)[C@@H](NC(=O)[C@H](C)NC(=O)[C@H](Cc1c[nH]c2ccccc12)NC(=O)[C@H](CCC(N)=O)NC(=O)[C@@H](Cc1ccccc1)NC(=O)COCCOCCNC(=O)[C@H](CO)NC(=O)[C@H](CCC(=O)O)NC(=O)[C@H](CO)NC(=O)CS)C(C)C)C(N)=O` [[^99mTc]Tc-maSES-PEG2-RM26, metal not drawn], for which, in data set [1] (setting [3]), the “uptake, Blood” value stood at 0.15 ± 0.07 % IA/g; the “uptake, Bone” value is reported as 0.04 ± 0.02 % IA/g; the “uptake, GI (gastrointestinal tract with content)” value was 46 ± 4 % IA; the “uptake, Intestine” value is on record as 1.1 ± 0.6 % IA/g. Also, in data set [1] (setting [3]), the “uptake, Kidneys” value is 3 ± 2 % IA/g; the “uptake, Liver” value is on record as 1.1 ± 0.3 % IA/g; the “uptake, Lung” value is recorded as 0.14 ± 0.07 % IA/g; the “uptake, Muscle” value is 0.04 ± 0.03 % IA/g. In data set [1] (setting [3]), the “uptake, Pancreas” value was 2 ± 1 % IA/g; the “uptake, Spleen” value was determined as 0.11 ± 0.02 % IA/g; the “uptake, Stomach” value came to 0.9 ± 0.4 % IA/g; the “uptake, Tumor” value was 2.9 ± 0.7 % IA/g. Also, in data set [1] (40 pmol), the “Tumor-to-non-tumor ratio, Blood” value is 26 ± 19; the “Tumor-to-non-tumor ratio, Bone” value turned out to be 84 ± 54; the “Tumor-to-non-tumor ratio, Intestine” value was determined as 3 ± 2; the “Tumor-to-non-tumor ratio, Kidneys” value is 2 ± 2. In data set [1] (40 pmol), the “Tumor-to-non-tumor ratio, Liver” value came to 3.0 ± 0.8; the “Tumor-to-non-tumor ratio, Lung” value is reported as 26 ± 16; the “Tumor-to-non-tumor ratio, Muscle” value is 90 ± 52; the “Tumor-to-non-tumor ratio, Pancreas” value is given as 1.5 ± 0.8. Besides, in data set [1] (40 pmol), the “Tumor-to-non-tumor ratio, Spleen” value came to 24 ± 10 and the “Tumor-to-non-tumor ratio, Stomach” value is 4 ± 2. The same compound had a pH-dependent lipophilicity (logD) in data set [2] of -1.0.

As a reminder, the logD is lipophilicity at a set pH, counting ionised and neutral species. Read a low logD as lower lipophilicity.

The values above are taken from publication PMC7912279, “Preclinical Evaluation of ^99mTc-Labeled GRPR Antagonists maSSS/SES-PEG2-RM26 for Imaging of Prostate Cancer” (Pharmaceutics, 2021).
